Experimental data taken from patent US7713690B1, “Luminous bacteria and methods for the isolation, identification and quantitation of toxicants” (priority 1991, dated 2010).

Experiments:
Vibrio fischeri [1] = assay: Metals spotted on chromatography paper sheet, dried, exposed to luminescent bacteria; type: cell-based; conditions: no chromatography separation
Excerpt: Upon spotting of the various metals along one side of a chromatography paper sheet, the sample spots were allowed to dry. Upon drying, the spotted sheets were exposed to the luminescent bacteria Vibrio fischeri.

Vibrio fischeri [2] = assay: Inhibition of luminescence of luminescent bacteria (general statements); type: cell-based

| Compound | visualization of heavy metal salts by luminescent bacteria (Vibrio fischeri [1]) | inhibition of luminescence of Vibrio fischeri (Vibrio fischeri [2]) |
| --- | --- | --- |
| [Cd] [cadmium] | able to visualize the presence | – |
| [Ca+2] [calcium ion] | – | Neither does the luminescence of the Vibrio fischeri appear to be immediately inhibited |
| lead | able to visualize the presence | – |
| mercury | able to visualize the presence | – |
